Reference: PubChem BioAssay AID2060620 (Molecular Pharmacology Branch, DTP, NCI, 2025)

Test system: 328373-195-R-J1-PDC complex spheroids, viability % test/control
Assay: Anticancer human tumor 328373-195-R-J1-PDC patient-derived head and neck squamous carcinoma cell line growth inhibition [CLK]
Details: for IC50: curve of first compound; for viability, T/C: stronger effect = lower value
Procedure, shortened: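 Patient-derived tumor cells grown as complex spheroids with HUVEC endothelial cells and mesenchymal stem cells, treated with drug combinations. Concentrations descend in half-log steps from near clinical Cmax, or from 10 microM if Cmax unknown.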

[1] = second compound 0.0316 µM, first compound 0.0316 µM
[2] = second compound 0.0316 µM, first compound 0.1 µM
[3] = second compound 0.1 µM, first compound 0.0316 µM
[4] = second compound 0.1 µM, first compound 0.1 µM
[5] = second compound 0.316 µM, first compound 0.0316 µM
[6] = second compound 0.316 µM, first compound 0.1 µM
[7] = second compound 1 µM, first compound 0.0316 µM
[8] = second compound 1 µM, first compound 0.1 µM
[9] = second compound 3.16 µM, first compound 0.0316 µM
[10] = second compound 3.16 µM, first compound 0.1 µM
[11] = second compound 10 µM, first compound 0.0316 µM
[12] = second compound 10 µM, first compound 0.1 µM
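Also: spheroids exposed to the agents for 7 days.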

In the case of `Cn1ncnc1[C@H]1c2n[nH]c(=O)c3cc(F)cc(c23)N[C@@H]1c1ccc(F)cc1` + CN1CCN(c2cc(C(=O)Nc3cc4cc(-c5cnn(C)c5)ccc4cn3)ccn2)CC1, the IC50 (second compound 0.0316 µM) is reported as > 100 nM, the IC50 (second compound 0.1 µM) is reported as > 100 nM and the IC50 (second compound 0.316 µM) is reported as < 0.316 nM. For the same compound, the IC50 (second compound 1 µM) was < 0.316 nM, the IC50 (second compound 3.16 µM) was < 0.316 nM and the IC50 (second compound 10 µM) was < 0.316 nM. The viability, T/C (second compound 0.0316 µM, first compound 0.000316 µM) was 93.5%, the viability, T/C (second compound 0.0316 µM, first compound 0.001 µM) was 84.3% and the viability, T/C (second compound 0.0316 µM, first compound 0.00316 µM) was 91.8%. It also gave a viability, T/C (second compound 0.0316 µM, first compound 0.01 µM) of 119%, a viability, T/C [1] of 95.1% and a viability, T/C [2] of 82.2%. The viability, T/C (second compound 0.1 µM, first compound 0.000316 µM) was 80.5%, the viability, T/C (second compound 0.1 µM, first compound 0.001 µM) was 78.7% and the viability, T/C (second compound 0.1 µM, first compound 0.00316 µM) was 83.9%. The viability, T/C (second compound 0.1 µM, first compound 0.01 µM) was 86.8%, the viability, T/C [3] was 85.8% and the viability, T/C [4] was 59.7%. The viability, T/C (second compound 0.316 µM, first compound 0.000316 µM) was 29.9%, the viability, T/C (second compound 0.316 µM, first compound 0.001 µM) was 33.9% and the viability, T/C (second compound 0.316 µM, first compound 0.00316 µM) was 28.4%. The viability, T/C (second compound 0.316 µM, first compound 0.01 µM) was 27%, the viability, T/C [5] was 21.4% and the viability, T/C [6] was 18.4%. It also gave a viability, T/C (second compound 1 µM, first compound 0.000316 µM) of 0.11%, a viability, T/C (second compound 1 µM, first compound 0.001 µM) of 2% and a viability, T/C (second compound 1 µM, first compound 0.00316 µM) of 2.06%. The viability, T/C (second compound 1 µM, first compound 0.01 µM) was 0.15%, the viability, T/C [7] was 1.32% and the viability, T/C [8] was 2.11%. It also gave a viability, T/C (second compound 3.16 µM, first compound 0.000316 µM) of 0.08%, a viability, T/C (second compound 3.16 µM, first compound 0.001 µM) of 0.77% and a viability, T/C (second compound 3.16 µM, first compound 0.00316 µM) of 4.18%. The viability, T/C (second compound 3.16 µM, first compound 0.01 µM) was 0.08%, the viability, T/C [9] was 1.73% and the viability, T/C [10] was 1.99%. For the same compound, the viability, T/C (second compound 10 µM, first compound 0.000316 µM) was 0.17%, the viability, T/C (second compound 10 µM, first compound 0.001 µM) was 0.14% and the viability, T/C (second compound 10 µM, first compound 0.00316 µM) was 1.47%. For the same compound, the viability, T/C (second compound 10 µM, first compound 0.01 µM) was 0.12%, the viability, T/C [11] was 2.53% and the viability, T/C [12] was 1.76%.
For `O=C(c1cc(Cc2n[nH]c(=O)c3ccccc23)ccc1F)N1CCN(C(=O)C2CC2)CC1` + CNC(=O)c1ccc(Nc2nc(OC3CCCC3)c3c(-c4ccc5nc(C)oc5c4)c[nH]c3n2)c(OC)c1, the IC50 (second compound 0.0316 µM) was > 10000 nM, the IC50 (second compound 0.1 µM) was < 31.6 nM and the IC50 (second compound 0.316 µM) was < 31.6 nM. For the same compound, the IC50 (second compound 1 µM) was < 31.6 nM, the IC50 (second compound 3.16 µM) was < 31.6 nM and the IC50 (second compound 10 µM) was < 31.6 nM. The viability, T/C [1] was 69.1%, the viability, T/C [2] was 62.5% and the viability, T/C (second compound 0.0316 µM, first compound 0.316 µM) was 62.2%. It also gave a viability, T/C (second compound 0.0316 µM, first compound 1 µM) of 59.1%, a viability, T/C (second compound 0.0316 µM, first compound 3.16 µM) of 70.7% and a viability, T/C (second compound 0.0316 µM, first compound 10 µM) of 52.3%. For the same compound, the viability, T/C [3] was 13.8%, the viability, T/C [4] was 13.1% and the viability, T/C (second compound 0.1 µM, first compound 0.316 µM) was 9.71%. The viability, T/C (second compound 0.1 µM, first compound 1 µM) was 12.3%, the viability, T/C (second compound 0.1 µM, first compound 3.16 µM) was 13.5% and the viability, T/C (second compound 0.1 µM, first compound 10 µM) was 11.3%. For the same compound, the viability, T/C [5] was 10.8%, the viability, T/C [6] was 11.1% and the viability, T/C (second compound 0.316 µM, first compound 0.316 µM) was 11.7%. The viability, T/C (second compound 0.316 µM, first compound 1 µM) was 9.06%, the viability, T/C (second compound 0.316 µM, first compound 3.16 µM) was 11.2% and the viability, T/C (second compound 0.316 µM, first compound 10 µM) was 10.3%. It also gave a viability, T/C [7] of 10.3%, a viability, T/C [8] of 10% and a viability, T/C (second compound 1 µM, first compound 0.316 µM) of 9.23%. For the same compound, the viability, T/C (second compound 1 µM, first compound 1 µM) was 12%, the viability, T/C (second compound 1 µM, first compound 3.16 µM) was 12.6% and the viability, T/C (second compound 1 µM, first compound 10 µM) was 9.55%. It also gave a viability, T/C [9] of 11.4%, a viability, T/C [10] of 11.2% and a viability, T/C (second compound 3.16 µM, first compound 0.316 µM) of 10%. For the same compound, the viability, T/C (second compound 3.16 µM, first compound 1 µM) was 11.5%, the viability, T/C (second compound 3.16 µM, first compound 3.16 µM) was 14.2% and the viability, T/C (second compound 3.16 µM, first compound 10 µM) was 9.92%. For the same compound, the viability, T/C [11] was 11.5%, the viability, T/C [12] was 13.2% and the viability, T/C (second compound 10 µM, first compound 0.316 µM) was 13.2%. The viability, T/C (second compound 10 µM, first compound 1 µM) was 9.97%, the viability, T/C (second compound 10 µM, first compound 3.16 µM) was 15.8% and the viability, T/C (second compound 10 µM, first compound 10 µM) was 12.4%.
